The NIST ThermoML archive (doi:10.1016/j.fluid.2015.09.030)
Numbers after ± are expanded uncertainties. Each block holds one compound with its values, some of them ahead of it.

Conditions: Liquid, Ebulliometric method (Recirculating still)

vapor or sublimation pressure (447.46 K): 101.33 ± 0.46 kPa
SMILES: CCCCCCCCCC [decane]

vapor or sublimation pressure (409.96 K): 101.33 ± 0.46 kPa
SMILES: Cc1ccc(C)s1 [2,5-dimethylthiophene]

vapor or sublimation pressure (353.15 K): 101.33 ± 0.46 kPa
SMILES: c1ccccc1 [benzene]

vapor or sublimation pressure (407.14 K): 101.33 ± 0.46 kPa
SMILES: CCc1cccs1 [2-ethylthiophene]

vapor or sublimation pressure (351.45 K): 101.33 ± 0.46 kPa
SMILES: CCO [ethanol]

SMILES: Cc1cc(C)cc(C)c1 [1,3,5-trimethylbenzene]
vapor or sublimation pressure (437.83 K): 101.33 ± 0.46 kPa
